Measured values reported in article PMC7023430, “4-Aminobenzoic Acid Derivatives: Converting Folate Precursor to Antimicrobial and Cytotoxic Agents” (Biomolecules, 2019).
Values after ≈ are worked out from the molar mass of the structure shown. Read-outs that look alike come from different tables or passages of the source.

Experiments:
eight fungal strains = experiment: Antifungal activity; format: cell-based; details: statement over the fungal panel; time not stated
Experimental: (§1) The antifungal properties were evaluated against five yeast strains, namely: Candida albicans ATCC 44859, Candida tropicalis 156, Candida krusei […], Candida glabrata 20/I, Trichosporon […] 1188 and three strains of filamentous fungi: Aspergillus fumigatus 231, Lichtheimia corymbifera 272, and Trichophyton interdigitale 445. A microdilution broth method was performed according to EUCAST II, III instructions with slight modifications. Briefly, tested compounds were dissolved in DMSO and diluted in a twofold manner with RPMI-1640 medium with L-glutamine, supplemented with 2% glucose (w/v) and buffered to pH 7.0 with 3 morpholinopropane-1-sulfonic acid (all components were purchased from Sigma-Aldrich, USA). […] Positive controls consisted of test microbe solely, while negative controls consisted of medium and DMSO. Internal quality control was included too. Visual inspection was used for MIC endpoints evaluation. The experiments were conducted in duplicates. For the results to be valid, the difference in MIC determined from two parallel measurements must not be greater than one step on the dilution scale. PABA and triazole antimycotic drug fluconazole were involved as the reference compounds.

[1] = system: Pseudomonas aeruginosa ATCC 27853, CCM 3955; experiment: Antibacterial microdilution broth method, P. aeruginosa; format: cell-based; details: Pseudomonas aeruginosa, P. aeruginosa
[2] = system: Lichtheimia corymbifera 272; experiment: Antifungal microdilution broth method, L. corymbifera; format: cell-based
Experimental: as §1

[3] = system: M. kansasii 6509/96 (clinical isolate); experiment: Antimycobacterial micromethod in Šula's medium, M. kansasii 6509/96; format: cell-based; details: Mycobacterium kansasii
[4] = system: Candida albicans ATCC 44859; experiment: Antifungal microdilution broth method, C. albicans; format: cell-based
Experimental: as §1

Candida tropicalis 156 = experiment: Antifungal microdilution broth method, C. tropicalis; format: cell-based
Experimental: as §1

[5] = system: methicillin-resistant Staphylococcus aureus ATCC 43300, CCM 4750 (MRSA); experiment: Antibacterial microdilution broth method, MRSA; format: cell-based; details: Staphylococcus aureus
[6] = system: Enterococcus faecalis ATCC 29212, CCM 4224; experiment: Antibacterial microdilution broth method, E. faecalis; format: cell-based; details: Enterococcus faecalis
[7] = system: Mtb. 331/88 and three non-tuberculous mycobacterial strains; experiment: Antimycobacterial activity; format: cell-based; details: statement over four mycobacterial strains; time not stated
[8] = system: Staphylococcus aureus ATCC 29213, CCM 4223; experiment: Antibacterial microdilution broth method, S. aureus; format: cell-based
[9] = system: Staphylococcus epidermidis H 6966/08; experiment: Antibacterial microdilution broth method, S. epidermidis; format: cell-based; details: Staphylococcus epidermidis, H6966/08, S. epidermidis
Trichosporon asahii 1188 = experiment: Antifungal microdilution broth method, T. asahii; format: cell-based
Experimental: as §1

[10] = system: Klebsiella pneumoniae D 11750/08; experiment: Antibacterial microdilution broth method, K. pneumoniae; details: K. pneumoniae D 11750/08
[11] = system: Trichophyton interdigitale 445; experiment: Antifungal microdilution broth method, T. interdigitale; format: cell-based
Experimental: as §1

[12] = system: Mycobacterium avium 330/88; experiment: Antimycobacterial micromethod in Šula's medium, M. avium; format: cell-based
Candida krusei E28 = experiment: Antifungal microdilution broth method, C. krusei; format: cell-based; details: Pichia kudriavzevii
Experimental: as §1

[13] = system: four Gram-positive and four Gram-negative strains; experiment: Antibacterial activity; format: cell-based; details: statement over the bacterial panel, time not stated
[14] = system: ESBL-positive Klebsiella pneumoniae J 14368/08
[15] = system: Mycobacterium tuberculosis H37Rv (331/88); experiment: Antimycobacterial micromethod in Šula's medium, M. tuberculosis; format: cell-based
[16] = system: Escherichia coli ATCC 25922, CCM 3954; experiment: Antibacterial microdilution broth method, E. coli; format: cell-based; details: Escherichia coli
[17] = system: Mycobacterium kansasii 235/80; experiment: Antimycobacterial micromethod in Šula's medium, M. kansasii 235/80; format: cell-based
[18] = system: Aspergillus fumigatus 231; experiment: Antifungal microdilution broth method, A. fumigatus; format: cell-based
Experimental: as §1

Candida glabrata 20/I = experiment: Antifungal microdilution broth method, C. glabrata; format: cell-based; details: Nakaseomyces glabratus
Experimental: as §1

[19] = system: Klebsiella pneumoniae D 11750/08
[20] = system: E. coli, Listeria monocytogenes and Salmonella enteritidis; design: method as in PMID 7730199; details: strains distinct from this study; cited from earlier work
phytopathogenic fungi = system: phytopathogenic fungi; design: method as in PMID 29283262; details: read-out: IC50 of PABA, phytopathogenic fungi; cited from earlier work
staphylococci = details: according to EUCAST ref 33; cited from earlier work
[21] = 24 h incubation, read-out: MIC PA 24 h
[22] = 48 h incubation, read-out: MIC PA 48 h
[23] = 168 h, 7 days incubation at 37 °C, read-out: MIC M. kansasii 6509/96 7 d
[24] = 336 h, 14 days incubation at 37 °C, read-out: MIC M. kansasii 6509/96 14 d
[25] = 504 h, 21 days incubation at 37 °C, read-out: MIC M. kansasii 6509/96 21 d
[26] = ATCC44859, 24 h, read-out: MIC CA 24 h
[27] = ATCC44859, 48 h, read-out: MIC CA 48 h
[28] = 24 h incubation, read-out: MIC MRSA 24 h
[29] = 48 h incubation, read-out: MIC MRSA 48 h
[30] = 24 h incubation, read-out: MIC EF 24 h
[31] = 48 h incubation, read-out: MIC EF 48 h
[32] = 24 h incubation, read-out: MIC SA 24 h
[33] = 48 h incubation, read-out: MIC SA 48 h
[34] = 24 h incubation, read-out: MIC SE 24 h
[35] = 48 h incubation, read-out: MIC SE 48 h
[36] = 330/88, 336 h, 14 days incubation at 37 °C, read-out: MIC M. avium 330/88 14 d
[37] = 330/88, 504 h, 21 days incubation at 37 °C, read-out: MIC M. avium 330/88 21 d
[38] = 336 h, 14 days incubation at 37 °C, read-out: MIC Mtb. 331/88 14 d
[39] = 504 h, 21 days incubation at 37 °C, read-out: MIC Mtb. 331/88 21 d
[40] = 24 h incubation, read-out: MIC EC 24 h
[41] = 48 h incubation, read-out: MIC EC 48 h
[42] = 235/80, 168 h, 7 days incubation at 37 °C, read-out: MIC M. kansasii 235/80 7 d
[43] = 235/80, 336 h, 14 days incubation at 37 °C, read-out: MIC M. kansasii 235/80 14 d
[44] = 235/80, 504 h, 21 days incubation at 37 °C, read-out: MIC M. kansasii 235/80 21 d

## O=C(O)c1ccc(N=Cc2ccc(O)cc2)cc1 [1t, 4-[(4-Hydroxybenzylidene)amino]benzoic acid]
Eight fungal strains
  MIC, antifungal activity: no antimycotic potency
[1]; [21]
  MIC: > 500 µM
[1]; [22]
  MIC: > 500 µM
[2]; 24 h, read-out: MIC LC 24 h
  MIC: > 500 µM
[2]; 48 h, read-out: MIC LC 48 h
  MIC: > 500 µM
[3]; [23]
  MIC: 1000 µM (≈ 241 µg/mL)
[3]; [24]
  MIC: 1000 µM (≈ 241 µg/mL)
[3]; [25]
  MIC: 1000 µM (≈ 241 µg/mL)
[4]; [26]
  MIC: > 500 µM
[4]; [27]
  MIC: > 500 µM
Candida tropicalis 156; 24 h, read-out: MIC CT 24 h
  MIC: > 500 µM
Candida tropicalis 156; 48 h, read-out: MIC CT 48 h
  MIC: > 500 µM
[5]; [28]
  MIC: > 500 µM
[5]; [29]
  MIC: > 500 µM
[6]; [30]
  MIC: > 500 µM
[6]; [31]
  MIC: > 500 µM
[7]
  MIC, antimycobacterial activity: only negligible antimycobacterial activity
[8]; [32]
  MIC: > 500 µM
[8]; [33]
  MIC: > 500 µM
[9]; [34]
  MIC: > 500 µM
[9]; [35]
  MIC: > 500 µM
Trichosporon asahii 1188; 24 h, read-out: MIC TA 24 h
  MIC: > 500 µM
Trichosporon asahii 1188; 48 h, read-out: MIC TA 48 h
  MIC: > 500 µM
[10]; 24 h incubation
  MIC KP 24 h: >500 µM
[10]; 48 h incubation
  MIC KP 48 h: >500 µM
[11]; 72 h, read-out: MIC TI 72 h
  MIC: > 500 µM
[11]; 120 h, read-out: MIC TI 120 h
  MIC: > 500 µM
[12]; [36]
  MIC: 1000 µM (≈ 241 µg/mL)
[12]; [37]
  MIC: > 1000 µM
Candida krusei E28; 24 h, read-out: MIC CK 24 h
  MIC: > 500 µM
Candida krusei E28; 48 h, read-out: MIC CK 48 h
  MIC: > 500 µM
[13]
  MIC, antibacterial activity: avoided any antibacterial action
[14]
  MIC KP-E 24 h: >500 µM
  MIC KP-E 48 h: >500 µM
[15]; [38]
  MIC: 1000 µM (≈ 241 µg/mL)
[15]; [39]
  MIC: 1000 µM (≈ 241 µg/mL)
[16]; [40]
  MIC: > 500 µM
[16]; [41]
  MIC: > 500 µM
[17]; [42]
  MIC: 1000 µM (≈ 241 µg/mL)
[17]; [43]
  MIC: 1000 µM (≈ 241 µg/mL)
[17]; [44]
  MIC: > 1000 µM
[18]; 24 h, read-out: MIC AF 24 h
  MIC: > 500 µM
[18]; 48 h, read-out: MIC AF 48 h
  MIC: > 500 µM
Candida glabrata 20/I; 24 h, read-out: MIC CG 24 h
  MIC: > 500 µM
Candida glabrata 20/I; 48 h, read-out: MIC CG 48 h
  MIC: > 500 µM

## Nc1ccc(C(=O)O)cc1 [PABA 1, 4-aminobenzoic acid]
Eight fungal strains
  MIC: > 500 µM
[1]; [21]
  MIC: > 500 µM
[1]; [22]
  MIC: > 500 µM
[2]; 24 h, read-out: MIC LC 24 h
  MIC: > 500 µM
[2]; 48 h, read-out: MIC LC 48 h
  MIC: > 500 µM
[3]; [23]
  MIC: 1000 µM (≈ 137 µg/mL)
[3]; [24]
  MIC: 1000 µM (≈ 137 µg/mL)
[3]; [25]
  MIC: 1000 µM (≈ 137 µg/mL)
[4]; [26]
  MIC: > 500 µM
[4]; [27]
  MIC: > 500 µM
Candida tropicalis 156; 24 h, read-out: MIC CT 24 h
  MIC: > 500 µM
Candida tropicalis 156; 48 h, read-out: MIC CT 48 h
  MIC: > 500 µM
[5]; [28]
  MIC: > 500 µM
[5]; [29]
  MIC: > 500 µM
[6]; [30]
  MIC: > 500 µM
[6]; [31]
  MIC: > 500 µM
[19]; 24 h
  MIC KP 24 h: >500 µM
[19]; 48 h
  MIC KP 48 h: >500 µM
[8]; [32]
  MIC: > 500 µM
[8]; [33]
  MIC: > 500 µM
[9]; [34]
  MIC: > 500 µM
[9]; [35]
  MIC: > 500 µM
Trichosporon asahii 1188; 24 h, read-out: MIC TA 24 h
  MIC: > 500 µM
Trichosporon asahii 1188; 48 h, read-out: MIC TA 48 h
  MIC: > 500 µM
[11]; 72 h, read-out: MIC TI 72 h
  MIC: > 500 µM
[11]; 120 h, read-out: MIC TI 120 h
  MIC: > 500 µM
[12]; [36]
  MIC: > 1000 µM
[12]; [37]
  MIC: > 1000 µM
Candida krusei E28; 24 h, read-out: MIC CK 24 h
  MIC: > 500 µM
Candida krusei E28; 48 h, read-out: MIC CK 48 h
  MIC: > 500 µM
[13]; read-out: MIC, antibacterial activity
  MIC: > 500 µM
[20]
  MIC of PABA: 9000 to 24000 µM
[14]
  MIC KP-E 24 h: >500 µM
  MIC KP-E 48 h: >500 µM
[15]; [38]
  MIC: > 1000 µM
[15]; [39]
  MIC: > 1000 µM
[16]; [40]
  MIC: > 500 µM
[16]; [41]
  MIC: > 500 µM
Phytopathogenic fungi
  IC50: 1000 to 3000 µM
[17]; [42]
  MIC: 1000 µM (≈ 137 µg/mL)
[17]; [43]
  MIC: > 1000 µM
[17]; [44]
  MIC: > 1000 µM
[18]; 24 h, read-out: MIC AF 24 h
  MIC: > 500 µM
[18]; 48 h, read-out: MIC AF 48 h
  MIC: > 500 µM
Candida glabrata 20/I; 24 h, read-out: MIC CG 24 h
  MIC: > 500 µM
Candida glabrata 20/I; 48 h, read-out: MIC CG 48 h
  MIC: > 500 µM

## O=C1CN(/N=C/c2ccc([N+](=O)[O-])o2)C(=O)N1 [nitrofurantoin]
staphylococci
  breakpoint for staphylococci: 32 to 64 µg/mL
